pIC50: −log10 of the molar value. Where a SMILES comes first, the peptide text is derived from it. [ ]: non-standard residue; d: D form. The star is where a group is joined. Sta = CC(C)C[C@H](N)[C@@H](O)CC(=O)O; Isovaleryl = CC(C)CC(=O)*
Tested on: hog renin
Experiment: not given
Conditions: after the injection of hog renin into nephrectomized rats; Gross et al., Science 1972; cited from earlier work
In the case of `CC(C)CC(=O)N[C@H](C(=O)N[C@H](C(=O)N[C@@H](CC(C)C)[C@@H](O)CC(=O)N[C@@H](C)C(=O)N[C@@H](CC(C)C)[C@@H](O)CC(=O)O)C(C)C)C(C)C` [pepstatin] (Isovaleryl-VV[Sta]A[Sta]-OH), the “blood pressure in vivo” value is given as “reduces blood pressure in vivo”.

Target: T1, human plasma renin (Homo sapiens, UniProt P00797)
T1 construct: from tissue; host or cells: human plasma
T1 sequence (P00797 67-406): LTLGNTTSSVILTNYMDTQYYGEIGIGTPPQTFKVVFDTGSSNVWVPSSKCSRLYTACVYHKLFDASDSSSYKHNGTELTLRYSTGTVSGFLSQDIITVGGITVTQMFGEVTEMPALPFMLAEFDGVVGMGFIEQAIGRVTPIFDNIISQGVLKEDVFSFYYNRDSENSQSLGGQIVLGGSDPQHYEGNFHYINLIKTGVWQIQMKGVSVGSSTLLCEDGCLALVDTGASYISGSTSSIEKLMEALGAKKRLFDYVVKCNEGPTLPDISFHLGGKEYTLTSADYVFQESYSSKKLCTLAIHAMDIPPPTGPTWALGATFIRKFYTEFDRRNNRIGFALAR
Experiment: In vitro inhibition of human plasma renin (Boger et al., J. Med. Chem. 1985, 28, 1779)
Type: biochemical
Conditions: human plasma renin assay
Protocol: In vitro inhibition of human plasma renin was measured as described by Boger, et al., J. Med. Chem. (1985) 28, 1779.
They were analyzed for purity by HPLC (30 minute gradient, 5% CH3 CN--H2 O to 95% CH3 CN--H2 O buffered with 0.1% H3 PO4; C18 reverse phase column), and were analyzed for composition by C, H, and N combustion analysis. IC50 values were measured in vitro using the human plasma renin assay, as described by Boger et al. J. Med. Chem. (1985) 28, 1779.
They were analyzed for purity by HPLC under conditions given above, and were analyzed for composition by C, H, and N combustion analysis. IC50 values were measured as described above.
With “Boc-Phe-His-(ACHP)-5(S)-Methoxymethyl-1-Methyl-2-Pyrrolidinone [Example 3D]” the pIC50 was 7.15.
For “Boc-Phe-His-(ACHP)-1-Cyclohexyl-2-Pyrrolidinone [Example 3B]”, the pIC50 was 8.00.
“Boc-Phe-His-(ACHP)-5(S)-Acetoxymethyl)-1-Methyl-2-Pyrrolidinone [Example 3J]” gave a pIC50 of 6.80.
For “Boc-Phe-His-(ACHP)-1-(2-Benzyloxyethyl-2-Pyrrolidinone [Example 3E]”, the pIC50 was 7.62.
In the case of “Boc-Phe-His-(ACHP)-1-Methyl-2-Pyrrolidinone [Example 3A]”, the pIC50 was 8.00.
For “Boc-Phe-His-(ACHP)-1-Methyl-5(S)-Vinyl-2-Pyrrolidinone [Example 3F]”, the pIC50 was 8.10.
Work on “Boc-Phe-His-(ACHP)-5(S)-Hydroxymethyl)-1-Methyl-2-Pyrrolidinone [Example 3I]” yielded a pIC50 of 7.85.
“Boc-Phe-His-(ACHP)-5(S)-Ethyl-1-Methyl-2-Pyrrolidinone [Example 3L]” gave a pIC50 of 8.28.
In the case of “Boc-Phe-His-(ACHP)-1-Methyl-5(R)-Vinyl-2-Pyrrolidinone [Example 3G]”, the pIC50 was 8.60.
In the case of “Boc-Phe-His-(ACHP)-5(R)-Ethyl-1-Methyl-2-Pyrrolidinone [Example 3K]”, the pIC50 was 8.07.
“Boc-Phe-His-(ACHP)-5(S)-Benzyloxymethyl-1-Methyl-2-Pyrrolidinone [Example 3C]” showed a pIC50 of 5.36.

— patent US5006511A, “Di- or tripeptide renin inhibitors containing lactam conformational restriction in achpa” (Merck & Co., Inc., priority 1988, dated 1991)
